Measured values from US20060094676A1, “Compositions and methods for treating cancer using compositions comprising an inhibitor of endothelin receptor activity” (priority 2004, published 2006).

What was measured:
ETRB [1] = assay: Real-time RT-PCR of ETRB transcripts; type: cell-based, human; settings: BQ788 treatment
Protocol: (§1) Real-time RT-PCR detection of ETRB transcripts (see legends FIG. 2) (A). ETRB protein expression compared to tubulin in SK-MEL-28 cells after 3, 5 and 7 days with (+) or without (−) BQ788 (B).
RNA was prepared from the different cell lines in different culture conditions using SV total RNA isolation kit (Promega) according to the manufacturer's protocol. For each sample RNA concentration was determined using the total RNA nano procedure of an Agilent bioanalyzer. A stock of SK-MEL-28 RNA aliquots was prepared containing 10, 20, 50, 100, 200, 500 and 1000 ng/12 μl for use as a standard curve and kept in −80° C. For the experimental unknown samples, a stock of 100 ng/12 μl RNA aliquots from each cell line and condition was prepared and stored at −80° C. For each real-time experiment one series of standard curve and unknown experimental series of aliquots was put on ice for use. Complementary DNA was prepared by adding to each tube 0.5 μl of random hexamers (Promega) and 1 μl of 10 mM dNTP mix (Promega) and incubating at 65° C. for 5 min. 4 μl of 5× M-MLV buffer (Promega), 1 μl of the RNase inhibitor RNasin (Promega) and 1 μl of M-MLV RT RNase H (Promega) were then added and the solution was incubated at 42° C. for 50 min followed by 15 min at 70° C. For real time reactions 15 μl of each cDNA sample were transferred to 3 wells in a 386 well plate. To each well we added 10 μl of TaqMan universal PCR master mix (Applied Biosystems), 1 μl of primers+probe mix (Assays-on-Demand from Applied Biosystems: EDNRB Hs00240747, BCL-2A1 Hs00187845, PARP-3 Hs00154151, VEGF Hs00173626, HIF-1α Hs00153153 and Gravin Hs00374507) and 4 μl of nuclease free water (Promega). Wells containing water instead of cDNA served as negative controls. The samples were subjected to 40 cycles of 15 sec at 95° C. and 1 min at 60° C. A standard curve of Ct versus RNA quantity was established and accordingly the Ct in the unknown samples was correlated to quantity of transcript.

ETRB [2] = assay: Western blot of ETRB protein after BQ788; type: cell-based, human; settings: SK-MEL-28 cells; 3, 5 and 7 days with BQ788
Source text: as §1
Samples were subjected to SDS-PAGE according to the method as described (Laemmli, Cleavage of structural proteins during the assembly of the head of bacteriophage T4, Nature, 227:680-685 (1970)). Proteins were blotted onto PVDF (Millipore) membranes and the filters were blocked with 5% non-fat dry milk. Immunostaining was preformed with anti-human endothelin receptor B antibody (Assay Designs, Inc.) (4 μg/ml) or anti-human Tubulin (Oncogene Research Products) (1 μg/ml) followed by incubation with a peroxidase conjugated goat anti rabbit secondary antibody (Sigma) (1:5000). Bands of 51 kd and 60 kd for ETRB (Hiraki, et al, Regular immunohistochemical localization of endothelin-1 and endothelin receptor B in normal, hyperplastic and neoplastic human adrenocortical cells, Pathol. Int., 47:117-125 (1997)) and tubulin respectively were detected using a chemiluminescent substrate kit (Interchim) according to the manufacturer's recommendations.

[3] = test system: tumors derived from a human melanoma cell line grown in nude mice; settings: cited from earlier work

## CCCC[C@@H](NC(=O)[C@@H](Cc1cn(C(=O)OC)c2ccccc12)NC(=O)[C@H](CC(C)(C)C)NC(=O)N1[C@H](C)CCC[C@@H]1C)C(=O)O [BQ788, N-cis-2,6-dimethylpiperidinocarbonyl-L-γ-methylleucyl-D-1-methoxycarbonyltrptophanyl-D-norleucine]
ETRB [1]; Cut-met line
  reduction in ETRB mRNA expression: 1.49 fold
ETRB [1]; LN-met line
  reduction in ETRB mRNA expression: 1.85 fold
ETRB [1]; SK-MEL-28 cells
  reduction in ETRB mRNA expression: 11 fold
ETRB [1]; primary melanoma cells
  ETRB expression level change: did not show any change
ETRB [2]
  ETRB protein levels: reduced
[3]; human melanoma tumors in nude mice injected with BQ788
  tumor growth: inhibition of growth
[3]; tumors treated systemically, nude mice
  tumor size: shrinkage of tumors
